Where two headings read alike, the source gives them in different places.
Tests used:
[1] = system: thoracic aorta specimens of SHRs; assay: measurement test of isometric tension in blood vessels (vasodilatory effect on phenylephrine-constricted ring specimens); type: cell-based, rat (spontaneously hypertensive rat, SHR); design: dilation rate: dose or concentration left out as unconfirmed; conditions: for concentration from which a vasodilatory effect / dilation reaction is shown: cumulative addition
Protocol: In the examination of each condition, concentration of the active ingredient was checked by identifying fractions showing vasodilatory effect by measurement test of isometric tension in blood vessels at each purification stage.
Thoracic aorta used for the test was removed from a male 10-12 week-old SHR; after removal of the connective tissue, it was cut into a length 2-3 mm to produce ring specimens. The resulting ring specimens were attached to an organ bus filled with Krebs solution of 37° C. (119 mM NaCl/4.7 mM KCl/1.1 mM KH2PO4/1.2 mM MgSO4/25 mM NaHCO3, pH 7.4) in which a mixed gas of 95% O2-5% CO2 was aerated, then a static tension of 1.5 g was applied (UFER UC-05A; Iwashiya Kishimoto Ika Sangyo K.K., Kyoto). Vascular tension was measured by UFER UM-203 transducer (Iwashiya Kishimoto Ika Sangyo). After 60-min incubation from the attachment, the ring specimens were constricted using a vasoconstrictor phenylephrine (final concentration of 0.30 μM). To the constricted ring specimens, commercially available acetylcholine, that is an endothelium-dependent vasodilator (final concentration of 100 μM) was added, and presence/absence of vascular endothelium was determined by presence/absence of vasodilatory effect. Then, the ring specimens were washed with Krebs solution to remove the drugs, incubated at static tension for 10 min, and again constricted by 0.30 μM phenylephrine.

[2] = system: systolic blood pressure of SHRs; assay: single oral administration test to SHRs (blood pressure by tail cuff method); type: in vivo, rat (spontaneously hypertensive rat; conditions: single oral 10^−11 mol/kg, SHR; for maximum decrease in systolic blood pressure: 9 h after administration, compared to the control group; for blood pressure effect compared to the control group: measured 3, 6, 9 and 24 h after administration
Protocol: Animal experiments were carried out according to the animal experiment guidelines of Shinshu University. In the present study, spontaneously hypertensive rats of 10-13 week-old males (SHR/NCrlCrlj, Charles River Laboratories Japan, Yokohama) were used as an experimental animal. SHRs were bred in individual cages in a breeding room controlled with a light-dark cycle of […] and a room temperature of 22-23° C. In acclimation breeding, rat standard diet (MF; Charles River Laboratories) and tap water were fed ad libitum. SHRs are a rat strain that has been isolated in 1963 by selection mating from Wistar-Kyoto rats that had been bred in the animal experimentation center of Kyoto University. They are referred to as spontaneously hypertensive rats or essential hypertensive rats; while systolic blood pressure of the separation maternal. Wistar-Kyoto rats is approximately 135 mmHg for mature males and approximately 132 mmHg for mature females, blood pressure of almost all the SHRs becomes 150 mmHg or higher at 2 months from the birth, and reaches almost a maximum value at 4-5 months, with many of the values showing 180-210 mmHg. In general, as a model animal of essential hypertension that s said to be account for approximately 90% of the hypertension in humans, SHRs have been used to elucidate pharmacological effects and food functions, and a mechanism of blood pressure rise.
Single oral administration test was carried out using male 12-week-old SHRs with a body weight of 280-320 g. After acclimation breeding for 1 week, the rats were fasted for 12 h, and a sample was given to the rats by a single oral administration. The sample to be administered was dissolved in pure water, and given by a single oral administration with a dose of 10^−11 mol/kg (b.w.) to each 6 SHRs. Sample aqueous solutions of purified acetylcholine, propionylcholine and butyrylcholine were acidic, with a pH of 4.7, 4,3, and 4.4, respectively. To the control group, pure water was administered. Changes in the systolic blood pressure and diastolic blood pressure were measured using non-invasive blood pressure measuring instrument Softron BP-98A (Softron Co., Ltd., Tokyo) by tail cuff method, before administration and at 3, 6, 9, and 24 h after administration. Results of the single oral administration test of purified acetylcholine, propionylcholine and butyrylcholine were shown in FIG. 7.

| EC50 ([1]; hydrochloride salts, cumulative addition 10^−9 to 10^−4 M, read-out: EC50 of vasodilatory effect) | EC50 ([1]; Rattus norvegicus, hydrochloride salt, summary sentence b69, read-out: EC50 of vasodilatory effect (unit inferred)) | EC50 ([1]; Rattus norvegicus, hydrochloride salts, cumulative addition 10^−9 to 10^−4 M, read-out: EC50 of vasodilatory effect) | SMILES | maximum dilation rate ([1]; at 10^−4 M) | concentration from which a vasodilatory effect / dilation reaction is shown ([1]; hydrochloride salts) | maximum decrease in systolic blood pressure [2] | blood pressure effect compared to the control group [2] | maximum dilation rate ([1]; at 10^−6 M) | dilation rate ([1]; at the addition) | dilation ([1]; at the addition of 10^−4 M) |
| --- | --- | --- | --- | --- | --- | --- | --- | --- | --- | --- |
| 2270 nM | – | – | CCC(=O)OCC[N+](C)(C)C [propionylcholine] | 95.2% | 10^−7 M | 8.05 mmHg | significant vasodilatory effect | – | – | – |
| – | 27.2 nM | 27.2 nM | CC(=O)OCC[N+](C)(C)C [acetylcholine] | – | 10^−9 M | 24.7 mmHg | – | 89.9% | 1.52% | – |
| – | – | – | CCCC(=O)OCC[N+](C)(C)C [butyrylcholine] | – | – | – | no significant decrease in blood pressure | – | – | 7.14% |

From US20170182108A1, “FERMENTED FOOD EXTRACT COMPOSITION” (priority 2014, published 2017)
